Experimental data taken from patent US20170362283A1, “NISIN-BASED COMPOUNDS AND USE THEREOF IN THE TREATMENT OF BACTERIAL INFECTIONS” (UNIVERSITEIT UTRECHT HOLDING B.V., priority 2015, published 2017).
Converted amounts (≈) assume the structure as drawn. Read-outs that look alike come from different tables or passages of the source.

Legend:
MRSA USA300 = format: cell-based, Staphylococcus aureus
Protocol: (§1) Determining the MIC value is a standard technique well known to the skilled person, in particular the MIC value can be measured using method M07-A9 (CLSI standard, January 2012, Vol. 32, No. 2, “Methods for Dilution Antimicrobial Susceptibility Tests for Bacteria That Grow Aerobically”).
(§2) Different microorganisms (from glycerol stock) were plated out on blood agar and incubated at 37° C. for 24 hours. A colony was selected and 2×5 mL of TSB was inoculated. The samples and a sterile control were cultured for 16-20 hours at 37° C. Comparative compound B is nisin acting as a control. Comparative compound C is vancomycin, also acting as a control. Comparative compounds A, D and E are also control compounds not part of the present invention.
(§3) The overnight cultures were diluted to 0.5×10^6 CFU in TSB. 50 μL of the bacterial solution was added to each well and the plates were sealed with an adhesive membrane and incubated at 37° C. for 16 hours. The next day, the plates were visually inspected for bacterial growth.

E. coli = tested on: E. coli
Protocol: as §1
(§4) Different microorganisms (from glycerol stock) were plated out on blood agar and incubated at 37° C. for 24 hours. A colony was selected and 2×5 mL of TSB was inoculated. The samples and a sterile control were cultured for 16-20 hours at 37° C. Comparative compound B is nisin acting as a control. […] Comparative compounds A, D and E are also control compounds not part of the present invention.
as §3

B. subtilis = tested on: B. subtilis
Protocol: as §1, §4, §3

S. aureus = tested on: S. aureus
Protocol: as §1, §4, §3

VRE 155 = format: cell-based
Protocol: as §1, §2, §3

MRSA WKZ2 = format: cell-based, Staphylococcus aureus; conditions: WKZ2
Protocol: as §1, §2, §3

M. luteus = format: cell-based
Protocol: as §1, §2, §3

| Compound | MIC values MRSA USA300 (MRSA USA300; duplicate experiments) [µg/mL] | MIC values E. coli (E. coli; duplicate experiments) [µg/mL] | MIC values B. subtilis (B. subtilis; duplicate experiments) [µg/mL] | MIC values S. aureus (S. aureus; duplicate experiments) [µg/mL] | MIC values VRE 155 (VRE 155; duplicate experiments) [µg/mL] | MIC values MRSA WKZ2 (MRSA WKZ2) [µg/mL] | MIC values MRSA USA300 (MRSA USA300; USA300) [µg/mL] | MIC values E. coli (E. coli) [µg/mL] | MIC values B. subtilis (B. subtilis) [µg/mL] | MIC values S. aureus (S. aureus) [µg/mL] | MIC values VRE 155 (VRE 155) [µg/mL] | MIC values M. luteus (M. luteus) [µg/mL] | MIC values M. luteus (M. luteus; duplicate experiments) [µg/mL] |
| --- | --- | --- | --- | --- | --- | --- | --- | --- | --- | --- | --- | --- | --- |
| C=C1NC(=O)[C@H]([C@@H](C)CC)NC(=O)[C@H](NC(=O)C(=CC)NC(=O)[C@@H](N)[C@@H](C)CC)CSC[C@@H](C(=O)N[C@H]2C(=O)N3CCC[C@H]3C(=O)NCC(=O)N[C@H](C(=O)N[C@@H](CCCCN)C(=O)NCCCCCCCCCCC)CS[C@H]2C)NC(=O)[C@H](CC(C)C)NC1=O [(7)] | 16 (≈ 12.3 µM) | >64 | 4 (≈ 3.07 µM) | 8 (≈ 6.14 µM) | 4 (≈ 3.07 µM) |  |  |  |  |  |  |  |  |
| C=C1NC(=O)[C@H]([C@@H](C)CC)NC(=O)[C@H](NC(=O)C(=CC)NC(=O)[C@@H](N)[C@@H](C)CC)CSC[C@@H](C(=O)N[C@H]2C(=O)N3CCC[C@H]3C(=O)NCC(=O)N[C@H](C(=O)N[C@@H](CCCCN)C(=O)NCCCCCCC)CS[C@H]2C)NC(=O)[C@H](CC(C)C)NC1=O [(3)] | 64 (≈ 51.3 µM) | >64 | 16 (≈ 12.8 µM) | 64 (≈ 51.3 µM) | 8 (≈ 6.41 µM) |  |  |  |  |  |  |  |  |
| C=C1NC(=O)[C@H]([C@@H](C)CC)NC(=O)[C@H](NC(=O)C(=CC)NC(=O)[C@@H](N)[C@@H](C)CC)CSC[C@@H](C(=O)N[C@H]2C(=O)N3CCC[C@H]3C(=O)NCC(=O)N[C@H](C(=O)N[C@@H](CCCCN)C(=O)NCCCCCCCCCCCCCCC)CS[C@H]2C)NC(=O)[C@H](CC(C)C)NC1=O [(11)] | 64 (≈ 47.1 µM) | >64 | 8 (≈ 5.88 µM) | 32 (≈ 23.5 µM) | 8 (≈ 5.88 µM) |  |  |  |  |  |  |  |  |
| C=C1NC(=O)[C@H]([C@@H](C)CC)NC(=O)[C@H](NC(=O)C(=CC)NC(=O)[C@@H](N)[C@@H](C)CC)CSC[C@@H](C(=O)N[C@H]2C(=O)N3CCC[C@H]3C(=O)NCC(=O)N[C@H](C(=O)N[C@@H](CCCCN)C(=O)NCCCn3cc(CNC(=O)c4ccc(-c5ccc(-c6ccccc6)cc5)cc4)nn3)CS[C@H]2C)NC(=O)[C@H](CC(C)C)NC1=O [Compound (24) with R1-group (e)] |  |  |  |  |  | 8 (≈ 5.18 µM) | 8 (≈ 5.18 µM) | >64 | 4 (≈ 2.59 µM) | 8 (≈ 5.18 µM) | 8 (≈ 5.18 µM) | 2 (≈ 1.3 µM) |  |
| C=C1NC(=O)[C@H]([C@@H](C)CC)NC(=O)[C@H](NC(=O)C(=CC)NC(=O)[C@@H](N)[C@@H](C)CC)CSC[C@@H](C(=O)N[C@H]2C(=O)N3CCC[C@H]3C(=O)NCC(=O)N[C@H](C(=O)N[C@@H](CCCCN)C(=O)NCCCCCCCCC)CS[C@H]2C)NC(=O)[C@H](CC(C)C)NC1=O [(5)] | 32 (≈ 25.1 µM) | 64 (≈ 50.2 µM) | 8 (≈ 6.27 µM) | 16 (≈ 12.5 µM) | 8 to 16 |  |  |  |  |  |  |  |  |
| C=C1NC(=O)[C@H]([C@@H](C)CC)NC(=O)[C@H](NC(=O)C(=CC)NC(=O)[C@@H](N)[C@@H](C)CC)CSC[C@@H](C(=O)N[C@H]2C(=O)N3CCC[C@H]3C(=O)NCC(=O)N[C@H](C(=O)N[C@@H](CCCCN)C(=O)N[C@@H](Cc3ccccc3)C(=O)NCCCCCCCCCC)CS[C@H]2C)NC(=O)[C@H](CC(C)C)NC1=O [(16)] | 8 (≈ 5.57 µM) | >64 | 4 (≈ 2.78 µM) | 8 (≈ 5.57 µM) | 2 (≈ 1.39 µM) |  |  |  |  |  |  |  |  |
| C=C1NC(=O)[C@H]([C@@H](C)CC)NC(=O)[C@H](NC(=O)C(=CC)NC(=O)[C@@H](N)[C@@H](C)CC)CSC[C@@H](C(=O)N[C@H]2C(=O)N3CCC[C@H]3C(=O)NCC(=O)N[C@H](C(=O)N[C@@H](CCCCN)C(=O)N[C@@H](Cc3c[nH]c4ccccc34)C(=O)NCCCCCCCCCC)CS[C@H]2C)NC(=O)[C@H](CC(C)C)NC1=O [(15)] | 8 (≈ 5.42 µM) | >64 | 4 (≈ 2.71 µM) | 8 (≈ 5.42 µM) | 2 (≈ 1.36 µM) |  |  |  |  |  |  |  |  |
| C=C1NC(=O)[C@H]([C@@H](C)CC)NC(=O)[C@H](NC(=O)C(=CC)NC(=O)[C@@H](N)[C@@H](C)CC)CSC[C@@H](C(=O)N[C@H]2C(=O)N3CCC[C@H]3C(=O)NCC(=O)N[C@H](C(=O)N[C@@H](CCCCN)C(=O)NCCCCCC)CS[C@H]2C)NC(=O)[C@H](CC(C)C)NC1=O [(2)] |  | >64 | 32 (≈ 25.9 µM) | >64 |  |  |  |  |  |  |  |  | 2 (≈ 1.62 µM) |
| C=C1NC(=O)[C@H]([C@@H](C)CC)NC(=O)[C@H](NC(=O)C(=CC)NC(=O)[C@@H](N)[C@@H](C)CC)CSC[C@@H](C(=O)N[C@H]2C(=O)N3CCC[C@H]3C(=O)NCC(=O)N[C@H](C(=O)N[C@@H](CCCCN)C(=O)N[C@@H](Cc3ccc(O)cc3)C(=O)NCCCCCCCCCC)CS[C@H]2C)NC(=O)[C@H](CC(C)C)NC1=O [(18)] | 8 (≈ 5.51 µM) | >64 | 4 (≈ 2.75 µM) | 4 to 8 | 2 (≈ 1.38 µM) |  |  |  |  |  |  |  |  |
| C=C1NC(=O)[C@H]([C@@H](C)CC)NC(=O)[C@H](NC(=O)C(=CC)NC(=O)[C@@H](N)[C@@H](C)CC)CSC[C@@H](C(=O)N[C@H]2C(=O)N3CCC[C@H]3C(=O)NCC(=O)N[C@H](C(=O)N[C@@H](CCCCN)C(=O)NCCCn3cc(CCC(=O)NC/C=C(\C)CC/C=C(\C)CCC=C(C)C)nn3)CS[C@H]2C)NC(=O)[C@H](CC(C)C)NC1=O [Compound (24) with R1-group (d)] |  |  |  |  |  |  |  | >64 | 32 (≈ 20.9 µM) | 64 (≈ 41.7 µM) |  | 2 to 4 |  |
| C=C1NC(=O)[C@H]([C@@H](C)CC)NC(=O)[C@H](NC(=O)C(=CC)NC(=O)[C@@H](N)[C@@H](C)CC)CSC[C@@H](C(=O)N[C@H]2C(=O)N3CCC[C@H]3C(=O)NCC(=O)N[C@H](C(=O)N[C@@H](CCCCN)C(=O)NCCCn3cc(CCC(=O)N(CCCCCCCCCC)CCCCCCCCCC)nn3)CS[C@H]2C)NC(=O)[C@H](CC(C)C)NC1=O [Compound (24) with R1-group (b)] |  |  |  |  |  |  |  | >64 | >64 | >64 |  | 8 (≈ 4.97 µM) |  |
| C=C1NC(=O)[C@H]([C@@H](C)CC)NC(=O)[C@H](NC(=O)C(=CC)NC(=O)[C@@H](N)[C@@H](C)CC)CSC[C@@H](C(=O)N[C@H]2C(=O)N3CCC[C@H]3C(=O)NCC(=O)N[C@H](C(=O)N[C@@H](CCCCN)C(=O)NCCC[N+](C)(C)CCCCCCCCCC)CS[C@H]2C)NC(=O)[C@H](CC(C)C)NC1=O [(14)] | 8 | >64 | 4 | 4 | 4 |  |  |  |  |  |  |  |  |
| C=C1NC(=O)[C@H]([C@@H](C)CC)NC(=O)[C@H](NC(=O)C(=CC)NC(=O)[C@@H](N)[C@@H](C)CC)CSC[C@@H](C(=O)N[C@H]2C(=O)N3CCC[C@H]3C(=O)NCC(=O)N[C@H](C(=O)N[C@@H](CCCCN)C(=O)NCCCCCCCCCCCC)CS[C@H]2C)NC(=O)[C@H](CC(C)C)NC1=O [(8)] | 4 (≈ 3.04 µM) | >64 | 4 (≈ 3.04 µM) | 4 to 8 | 2 (≈ 1.52 µM) |  |  |  |  |  |  |  |  |
| C=C1NC(=O)[C@H]([C@@H](C)CC)NC(=O)[C@H](NC(=O)C(=CC)NC(=O)[C@@H](N)[C@@H](C)CC)CSC[C@@H](C(=O)N[C@H]2C(=O)N3CCC[C@H]3C(=O)NCC(=O)N[C@H](C(=O)N[C@@H](CCCCN)C(=O)NCCCCCCCCCCCCC)CS[C@H]2C)NC(=O)[C@H](CC(C)C)NC1=O [(9)] | 4 (≈ 3 µM) | >64 | 4 (≈ 3 µM) | 8 (≈ 6.01 µM) | 2 (≈ 1.5 µM) |  |  |  |  |  |  |  |  |
